From patent US20230192705A1, “SHP2 INHIBITORS, COMPOSITIONS AND USES THEREOF” (Betta Pharmaceuticals Co., Ltd, priority 2020, published 2023)
Like-named read-outs stand apart in the source and are kept apart here.

Key:
SHP2 = biological target: T1, SHP2 (Homo sapiens, UniProt Q06124); assay: SHP2 allosteric inhibitor enzyme activity assay (DiFMUP fluorescence); assay type: biochemical
T1 sequence (Q06124 1-593): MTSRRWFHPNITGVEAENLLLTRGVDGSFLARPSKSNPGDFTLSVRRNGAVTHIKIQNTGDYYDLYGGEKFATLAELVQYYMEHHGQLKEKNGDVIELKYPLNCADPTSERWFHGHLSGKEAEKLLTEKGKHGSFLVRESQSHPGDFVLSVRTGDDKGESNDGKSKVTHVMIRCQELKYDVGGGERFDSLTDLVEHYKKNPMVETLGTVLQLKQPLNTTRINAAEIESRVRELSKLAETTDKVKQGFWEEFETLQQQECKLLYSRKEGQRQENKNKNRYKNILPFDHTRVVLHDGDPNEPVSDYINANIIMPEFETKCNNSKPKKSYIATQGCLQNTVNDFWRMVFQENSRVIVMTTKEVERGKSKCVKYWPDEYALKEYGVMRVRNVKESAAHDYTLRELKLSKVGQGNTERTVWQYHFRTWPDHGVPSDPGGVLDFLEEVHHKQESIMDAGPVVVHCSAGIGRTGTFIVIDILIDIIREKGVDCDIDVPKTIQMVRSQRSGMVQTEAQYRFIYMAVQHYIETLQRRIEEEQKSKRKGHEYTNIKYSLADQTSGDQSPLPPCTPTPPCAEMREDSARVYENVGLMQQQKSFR
Method in brief: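 SHP2 activated by 0.5 μM IRS1_pY1172(dPEG8)pY1222 peptide, 0.2 ng enzyme per well, 1 h at room temperature with compound (1 μM top, 3-fold series), then DiFMUP substrate 1 h. Buffer: 60 mM HEPES, 75 mM NaCl, 75 mM KCl, 0.05% BRIJ-35, 1 mM EDTA, 5 mM DTT. Fluorescence ex 340/em 450 nm; IC50 by variable-slope fit.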

[1] = tested on: lung cancer NCI-H358 cell; assay: Cell proliferation assay (CellTiter-Glo), NCI-H358; assay type: cell-based; settings: Homo sapiens, NCI-H358, 96 hrs, CTG, read-out: Compound on NCI-H358 cell IC50
Description: (§1) The effects of the compounds on the proliferation of leukemia MV-4-11 cell and lung cancer NCI-H358 cell were evaluated by in vitro cell test. The assay used in this study was the CELL TITER-GLO (CTG) luminescence assay, which can detect the number of living cells by quantitative determination of ATP. Because ATP is involved in a variety of enzymatic reactions in vivo and is an indicator of the metabolism of living cells, its content can directly reflects the number and state of cells. During the experiment, Celltiter-Glo™ reagent was added to the cell culture medium to measure the luminescence value. The luminescence value was proportional to the amount of ATP, which in turn was positively correlated with the number of living cells. Therefore, ATP content can be used to detect cell viability.
A bottle of NCI-H358 cells in logarithmic growth phase was taken, the cells were digested and resuspend, counted, and then the cell density was adjusted. After that, the cells were inoculated into a 96-well Ultra-Low Attachment Microplate (Corning #3474), 2000 cells were inoculated in each well, and the well plate was placed in an incubator at 37° C. and 5% CO2, and the compounds of the invention were added for conducting.
(§2) An appropriate amount of the compound of the invention was taken for cell treatment, and the final concentration of the compound from high to low was 1000 nM, 333.3 nM, 111.1 nM, 37.04 nM, 12.35 nM, 4.115 nM, 1.372 nm, 0.4572 nM, 0.1524 nM, 0 nM, respectively. The orifice plate was cultured in an incubator at 37° C. and 5% CO2. Only adding medium without adding cell hole was set as blank group. Compound concentration of 0 nM group was zero control group.
NCI-H358 cells were cultured for 96 hrs, then 50 μL CellTiter-Glo® Luminescent cell viability assay solution was added to each well, and the cells were gently shaken for 2 mins, and incubated at room temperature for 10 mins. The cell reaction system was transferred to 96-well Microplate (Corning #3917). The detection values of each well were read on the multi-functional microplate reader.
(§3) The inhibition rate is calculated according to the luminous value reading,
(§4) Inhibition rate %=(1−(administration group value−blank group value)/(control group value−blank group value)*100
(§5) The log (inhibitor) vs. response variable slope of GraphPad Prism was used to fit the dose-response curve and calculate the IC50 of compounds inhibiting cell proliferation.

leukemia MV-4-11 cell = assay: Cell proliferation assay (CellTiter-Glo), MV-4-11; assay type: cell-based; settings: Homo sapiens, MV4-11, MV-4-11, 120 hrs, CTG, read-out: Compound on MV-4-11 cell IC50
Description: as §1
A bottle of MV-4-11 cells in logarithmic growth phase was taken, the cells were collected, centrifuged, resuspend, counted, and then inoculated into 96-well Microplate (Corning #3917), with 4000 cells inoculated in each well. The plates were placed in an incubator at 37° C. and 5% CO2 for 24 hrs culture, and the compounds of the invention were added for conducting.
as §2
After cultured for 120 hrs, MV-4-11 cells were added with 50 μL CellTiter-Glo® Luminescent cell viability assay solution in each well, gently shaken for 2 mins, and incubated at room temperature for 10 mins. The detection values of each well were read on the multi-functional microplate reader.
as §3, §4, §5

`N[C@@H]1c2ccccc2CC12CCN(c1nc3[nH]nc(C4=CCCCc5ccccc54)c3c(=O)[nH]1)CC2` [Example 125] showed an IC50 (SHP2; numeric values) of 1.6 nM, an IC50 ([1]; numeric values) of 1.1 nM and an IC50 (leukemia MV-4-11 cell; numeric values) of 1.9 nM.
`CC1(C)C=C(c2n[nH]c3nc(N4CCC5(CC4)Cc4ccccc4[C@H]5N)[nH]c(=O)c23)c2ccc(C(F)(F)F)nc2C1` [Example 144, (S)-6-(1-amino-1,3-dihydrospiro[indene-2,4′-piperidin]-1′-yl)-3-(7,7-dimethyl-2-(trifluoromethyl)-7,8-dihydroquinolin-5-yl)-1,5-dihydro-4H-pyrazolo[3,4-d]pyrimidin-4-one] gave an IC50 (SHP2; class symbols) of no more than 20 nM, an IC50 ([1]; class symbols) of 20 to 60 nM and an IC50 (leukemia MV-4-11 cell; class symbols) of 20 to 60 nM.
`Cc1cccc(C2(c3n[nH]c4nc(N5CCC6(CC5)Cc5ccccc5[C@H]6N)[nH]c(=O)c34)CC2)c1` [Example 10, (S)-6-(1-amino-1,3-dihydrospiro[indene-2,4′-piperidin]-1′-yl)-3-(1-(m-tolyl)cyclopropyl)-1,5-dihydro-4H-pyrazolo[3,4-d]pyrimidin-4-one] showed an IC50 (SHP2; numeric values) of 0.9 nM, an IC50 ([1]; class symbols) of no more than 20 nM and an IC50 (leukemia MV-4-11 cell; class symbols) of no more than 20 nM.
For `N#Cc1ccc2c(c1)CCC=C2c1n[nH]c2nc(N3CCC4(CC3)Cc3ccccc3[C@H]4N)[nH]c(=O)c12` [Example 122, (S)-5-(6-(1-amino-1,3-dihydrospiro[indene-2,4′-piperidin]-1′-yl)-4-oxo-4,5-dihydro-1H-pyrazolo[3,4-d]pyrimidin-3-yl)-7,8-dihydronaphthalene-2-carbonitrile], the IC50 (SHP2; numeric values) was 1.1 nM, the IC50 ([1]; numeric values) was 1.1 nM and the IC50 (leukemia MV-4-11 cell; numeric values) was 2.1 nM.
In the case of `N[C@@H]1c2ccccc2CC12CCN(c1nn3cc(C4CC4)nc3s1)CC2` [Comparative compound 2, reference compound], the IC50 ([1]; numeric values) is reported as 1810 nM and the IC50 (leukemia MV-4-11 cell; numeric values) is reported as 454 nM.
`N[C@@H]1c2ccccc2CC12CCN(c1nc3[nH]nc(C4=CCCc5nc(Cl)ccc54)c3c(=O)[nH]1)CC2` [Example 139, (S)-6-(1-amino-1,3-dihydrospiro[indene-2,4′-piperidin]-1′-yl)-3-(2-chloro-7,8-dihydroquinolin-5-yl)-1,5-dihydro-4H-pyrazolo[3,4-d]pyrimidin-4-one] gave an IC50 (SHP2; numeric values) of 1.6 nM, an IC50 ([1]; numeric values) of 2 nM and an IC50 (leukemia MV-4-11 cell; numeric values) of 2.8 nM.
In the case of `N[C@@H]1c2ccccc2CC12CCN(c1nc3[nH]nc(C4=CCOc5cc(F)ccc54)c3c(=O)[nH]1)CC2` [Example 115, (S)-6-(1-amino-1,3-dihydrospiro[indene-2,4′-piperidin]-1′-yl)-3-(7-fluoro-2H-chromen-4-yl)-1,5-dihydro-4H-pyrazolo[3,4-d]pyrimidin-4-one], the IC50 (SHP2; class symbols) is reported as no more than 20 nM, the IC50 ([1]; numeric values) is reported as 1.2 nM and the IC50 (leukemia MV-4-11 cell; numeric values) is reported as 1.4 nM.
In the case of `C#Cc1cccc(C2(c3n[nH]c4nc(N5CCC6(CC5)Cc5ccccc5[C@H]6N)[nH]c(=O)c34)CC2)c1` [Example 222, (S)-6-(1-amino-1,3-dihydrospiro[indene-2,4′-piperidin]-1′-yl)-3-(1-(3-ethynylphenyl)cyclopropyl)-1,5-dihydro-4H-pyrazolo[3,4-d]pyrimidin-4-one], the IC50 (SHP2; class symbols) is reported as no more than 20 nM, the IC50 ([1]; class symbols) is reported as no more than 20 nM and the IC50 (leukemia MV-4-11 cell; class symbols) is reported as no more than 20 nM.
`N[C@@H]1c2ccccc2CC12CCN(c1nc3[nH]nc(C4(c5cccc(Cl)c5)CC4)c3c(=O)[nH]1)CC2` [Example 4, (S)-6-(1-amino-1,3-dihydrospiro[indene-2,4′-piperidin]-1′-yl)-3-(1-(3-chlorophenyl)cyclopropyl)-1,5-dihydro-4H-pyrazolo[3,4-d]pyrimidin-4-one] was tested, and the IC50 (SHP2; class symbols) was no more than 20 nM, the IC50 ([1]; class symbols) was no more than 20 nM and the IC50 (leukemia MV-4-11 cell; class symbols) was no more than 20 nM.
`N[C@@H]1c2ccccc2CC12CCN(c1nc3[nH]nc(C4(c5cccc(O)c5Cl)CC4)c3c(=O)[nH]1)CC2` [Example 50, (S)-6-(1-amino-1,3-dihydrospiro[indene-2,4′-piperidin]-1′-yl)-3-(1-(2-chloro-3-hydroxyphenyl)cyclopropyl)-1,5-dihydro-4H-pyrazolo[3,4-d]pyrimidin-4-one] was tested, and the IC50 (SHP2; class symbols) was no more than 20 nM.
`C[C@@H]1OCC2(CCN(c3ncc(C4(c5ccccc5)CC4)nc3CO)CC2)[C@@H]1N` [Example 260, (3-((3S,4S)-4-amino-3-methyl-2-oxa-8-azaspiro[4.5]decan-8-yl)-6-(1-phenylcyclopropyl)pyrazin-2-yl)methanol] showed an IC50 (SHP2; class symbols) greater than 60 nM.
In the case of `N[C@@H]1c2ccccc2CC12CCN(c1nc3[nH]nc([C@H]4C[C@H]4c4ccccc4)c3c(=O)[nH]1)CC2` [Example 105, 6-((S)-1-amino-1,3-dihydrospiro[indene-2,4′-piperidin]-1′-yl)-3-((1S,2R)-2-phenylcyclopropyl)-1,5-dihydro-4H-pyrazolo[3,4-d]pyrimidin-4-one], the IC50 (SHP2; class symbols) is reported as no more than 20 nM.
With `C[C@@H]1OCC2(CCN(c3nc4[nH]nc(C5(c6cccs6)CC5)c4c(=O)[nH]3)CC2)[C@@H]1N` [Example 278, 6-((3S,4S)-4-amino-3-methyl-2-oxa-8-azaspiro[4.5]decan-8-yl)-3-(1-(thiophen-2-yl)cyclopropyl)-1,5-dihydro-4H-pyrazolo[3,4-d]pyrimidin-4-one] the IC50 (SHP2; class symbols) was 20 to 60 nM.
Work on `N[C@@H]1c2ccccc2CC12CCN(c1nc3[nH]nc(C4(c5nc6ccccc6[nH]5)CC4)c3c(=O)[nH]1)CC2` [Example 251, (S)-3-(1-(1H-benzo[d]imidazol-2-yl)cyclopropyl)-6-(1-amino-1,3-dihydrospiro[indene-2,4′-piperidin]-1′-yl)-1,5-dihydro-4H-pyrazolo[3,4-d]pyrimidin-4-one] yielded an IC50 (SHP2; class symbols) of 20 to 60 nM.
With `N[C@@H]1c2ccccc2CC12CCN(c1nc3[nH]nc(C4=CCS(=O)(=O)c5ccccc54)c3c(=O)[nH]1)CC2` [Example 180, (S)-6-(1-amino-1,3-dihydrospiro[indene-2,4′-piperidin]-1′-yl)-3-(1,1-dioxido-2H-thiochromen-4-yl)-1,5-dihydro-4H-pyrazolo[3,4-d]pyrimidin-4-one] the IC50 (SHP2; class symbols) was no more than 20 nM.
`C[C@@H]1OCC2(CCN(c3nc4[nH]nc(C5(c6nccs6)CC5)c4c(=O)[nH]3)CC2)[C@@H]1N` [Example 277, 6-((3S,4S)-4-amino-3-methyl-2-oxa-8-azaspiro[4.5]decan-8-yl)-3-(1-(thiazol-2-yl)cyclopropyl)-1,5-dihydro-4H-pyrazolo[3,4-d]pyrimidin-4-one] was tested, and the IC50 (SHP2; class symbols) was 20 to 60 nM.
`CSc1ccc2c(c1)[C@@H](N)C1(CCN(c3nc4[nH]nc(C5(c6ccccc6)CC5)c4c(=O)[nH]3)CC1)C2` [Example 196, (S)-6-(1-amino-6-(methylthio)-1,3-dihydrospiro[indene-2,4′-piperidin]-1′-yl)-3-(1-phenylcyclopropyl)-1,5-dihydro-4H-pyrazolo[3,4-d]pyrimidin-4-one] showed an IC50 (SHP2; class symbols) of no more than 20 nM.
